Series [1] can be described thus: Thermal degradation of RC-101 solution, HPLC. Format: physicochemical. Conditions: 500 μg/mL solution, HPLC-UV 215 nm.
Method: (§3) For all pre-formulation studies described below, triplicate solutions of RC-101 (500 μg/mL) were prepared in either water or aqueous buffer solution. Thermal degradation studies were conducted at 25, 37, and 65°C for a minimum period of 1 week. The effect of pH on the stability of RC-101 was evaluated over the pH range from 3 to 12 using 10 mM phosphate buffer solutions, at low (50 mmol/kg) and high (500 mmol/kg) ionic strength. Oxidation of RC-101 was evaluated by exposing a solution of RC-101 to hydrogen peroxide (H2O2) at concentrations of 3.0, 0.08, and 0.002% (v/v). The high H2O2 concentration (3.0%) was selected as a forced degradation concentration. […] Protection against oxidation was investigated by the addition of antioxidants commonly used in pharmaceutical products. The antioxidants used in this study were: methionine (95.2 μg/mL or 250 μg/mL), cysteine (95.2 μg/mL), glutathione (90.9 μg/mL), vitamin E TPGS (90.9 μg/mL), ascorbic acid (1.0 mg/mL), sodium ascorbate (1.0 mg/mL), and EDTA (1.0 μg/mL).
(§4) RC-101 concentration after exposure to preformulation conditions was analyzed by HPLC as previously described [11]. Briefly, the HPLC system (Waters Corporation, Milford, MA) was equipped with an autoinjector model 717, a quaternary pump model 600, and an ultraviolet (UV) detector model 2487 set up at 215 nm. Separation of RC-101 from degradant products was achieved using a Phenomenex Jupiter 5 μC5 300 Å (4.6 × 250 mm) column (Phenomenex, Torrance, CA) protected by a Widepore C5 (4 × 3.0 mm) guard cartridge (Phenomenex). The gradient consisted of mobile phase A (0.1% TFA in water (v/v)), and mobile phase B (0.07% TFA in acetonitrile (v/v)) pumped at a flow rate of 1.0 mL/min. […]
(§5) HPLC data obtained from the preformulation studies were expressed as the average percentage of the peak area from time 0 ± standard deviation, n = 3. Results were analyzed by one-way analysis of variance (ANOVA) with multiple comparisons of individual time points by using post hoc Bonferroni correction to detect significant differences under different conditions. […]
For series [2] the following is noted: for detection of RC-101 by LC-MS/MS: frozen HVF (-80°C, 3 months) 1:1, 37°C, nanoLC-SRM MS, qualitative. As for the experimental part: (§1) The HVF from the Instead Softcup® was removed by centrifugation of the conical tube for 10 min at 5,000 rpm. […] HVF was then removed from the cup and the pH of each HVF sample was measured with Fisher Alkacid pH filter strips (Fisher Scientific). All samples collected on a specific day were pooled to be used for the research studies. If the pH of the individual samples was higher than 5, the sample was not included in the pool but it was stored at -80°C for separate analysis. If the sample contained blood, it was immediately discarded. Samples were prepared as described in Table 1. […] Because of its high viscosity, HVF was measured by weight and not by volume. All solutions were prepared fresh and incubated with HVF (or water) at 37°C for specific periods of time (0, 2, 6, 12, 24, 48, and 72 h), unless specified otherwise. At each time point, the samples were centrifuged at 10,000 rpm for 10 min to separate the supernatant from the epithelial cells as described in the cell processing section. Both parts (supernatant and cells) were stored at -80 ± C until analyzed by LC-MS/MS. To evaluate the influence of freezing the fluid prior to the analysis, the last pool of HVF was divided into two samples: one used fresh (at the time of collection), and the other one stored at -80°C for a 3-month period. After that time period, HVF was thawed and processed for blank and RC-101 solution only, as described in Table 1. HVF samples collected with a high pH value indicative of BV were stored at -80°C as previously mentioned. After confirmation of BV on those fluid samples by Gram stain score, the fluid samples (HVF BV^+) were thawed, pooled, and processed as described in Table 1.
(§2) At each time point, the sample was removed from the incubation chamber and centrifuged for 10 min at 10,000 rpm, at 4 ± C to separate the supernatant from cell pellet. Supernatant (100 μL) was added to microcentrifuge filters Ultracel YM-10 Microcon MWCO 10,000 (Millipore Corporation, Bedford, MA), which were pre-washed with Milli Q water to eliminate any trace of propylene glycol from the filters. Samples were centrifuged twice for 15 min at 8,500 rpm, at 4 ± C. The filtrate was collected and frozen at -80 ± C until further analysis. A solution of 3 M urea was added to the cell pellet (1:1 w/w) obtained from the first centrifugation, to lyse the cells. This mixture was vortexed three times for 30 sec, and then centrifuged for 10 min at 10,000 rpm, at 4 ± C. The supernatant obtained from the cell lysate was then added to microcentrifuge filters Ultracel YM-10 Microcon MWCO 10,000 pre-washed with Milli Q water. Samples were centrifuged twice for 15 min at 8,500 rpm, at 4 ± C. The filtrate was collected and frozen at -80 ± C until analysis. […] Samples were thawed and added to PepCleanTM C-18 spin columns (Pierce Biotechnology Inc., Rockford, IL) for desalting, after column conditioning with acetonitrile:water (50:50) and equilibration with 0.1% trifluoroacetic acid. The column was washed three times with 0.1% trifluoroacetic acid, and RC-101 was eluted with acetonitrile:water (60:40) in 0.1% trifluoroacetic acid. Samples were dried in a speed vacuum CentriVap concentrator (LabConco Corp., Kansas City, MO) and resuspended with 200 μL of Milli Q water for LC-MS/MS analysis. Each sample described in Table 1 originated two sets of samples: one labeled as supernatant and the second one labeled as cells.
Integrated electrospray ionization (ESI)-capillary reversed-phase columns (75 μm inner diameter × 360 μm outer diameter × 100 mm length) packed with 5 μm 300 Å pore size Jupiter C18 reversed-phase stationary phase (Phenomenex) were prepared, as previously described. Solvent flow was supplied by a nanoflow HPLC system (Ultimate 3000, Dionex Corporation, Sunnyvale, CA).

A short description of series [3]: Stability in HVF positive for bacterial vaginosis (HVF BV+), detection by LC-MS/MS. Conditions: for detection of RC-101 by LC-MS/MS: nanoLC-SRM MS, qualitative. The procedure:
After removing the Instead Softcup®, a speculum examination was performed. Swab specimens of the endocervix were obtained using the Mini-tip Culturette TN collection system (Becton Dickinson, Sparks, MD) according to the manufacturer's guidelines. C. trachomatis and N. gonorrhoeae were detected with an amplified DNA assay based on the simultaneous amplification and detection of target DNA amplification primers and a fluorescent label detector probe. Bacterial vaginosis was detected by Gram stain and assessed by the Nugent score, where score results between 0 and 3 indicate a normal flora, between 4 and 6 indicates an intermediate state, and between 7 and 10 indicates bacterial vaginosis.
as §1
as §2, with “acid.” for “acid. Samples were dried in a speed vacuum CentriVap concentrator (LabConco Corp., Kansas City, MO) and resuspended with 200 μL of Milli Q water for LC-MS/MS analysis. Each sample described in Table 1 originated two sets of samples: one labeled as supernatant and the second one labeled as cells.”

A short description of series [4]: Oxidation of RC-101 by hydrogen peroxide, HPLC. Conditions: 500 μg/mL.
Method: as §3, §4, §5

Where two headings read alike, the source gives them in different places.

Turning to “GICRCICGKGICRCICGR (bicyclic or more) [RC-101]”, the “change in amount of RC-101 on storage (HPLC)” value in series [1] (25 °C, 13 days, % peak area of time 0, n = 3, p > 0.5) is on record as “no statistically significance difference”; in series [1] (37 °C, 13 days, % peak area of time 0, n = 3, p > 0.5) it was “no statistically significance difference”; in series [1] (65 °C, 168 h, compared with 25 °C, n = 3, p < 0.04), “significant decrease”. The “difference in the peptide after incubation with frozen fluid versus fresh HVF” value in series [2] (HVF stored at -80°C for 3 months, thawed, 1:1 with RC-101 100 μg/mL solution, 37°C, LC-MS/MS not quantitative) is given as “No detectable differences”. For the same sequence, the “detection of RC-101 by LC-MS/MS” value in series [2] (0 h), in series [2] (2 h), in series [2] (6 h), in series [2] (12 h), in series [2] (24 h) and in series [2] (48 h) was “+” in each case. Moreover, the “detection of RC-101 by LC-MS/MS” value in series [3] (HVF BV+ pool 1:1, 37°C, 2 h) was “-”; in series [3] (HVF BV+ pool 1:1, 37°C, 6 h) it was “-”; in series [3] (HVF BV+ pool 1:1, 37°C, 12 h), “-”; in series [3] (HVF BV+ pool 1:1, 37°C, 24 h) it was “-”; in series [3] (HVF BV+ pool 1:1, 37°C, 48 h), “-”; in series [3] (HVF BV+ pool (pH 5.8 ± 0.6, stored -80°C) 1:1, 37°C, 0 h), “-”. The “detection of RC-101 in HVF BV+” value in series [3] (HVF BV+ pool (stored -80°C), any time point studied, supernatant or cells, 37°C, LC-MS/MS) is recorded as “undetectable”. Further, in series [4] (0.002% and 0.08% H2O2 (biologically relevant), HPLC), the “degradation rate compared with 3.0% H2O2” value is listed as “slower”. Moreover, the “loss of RC-101” value in series [4] (3.0% H2O2 (forced degradation), 4 h, HPLC-UV, n = 3) worked out at 20%.

(Values after PMC3199744, “Preformulation and stability in biological fluids of the retrocyclin RC-101, a potential anti-HIV topical microbicide” (AIDS Research and Therapy, 2011).)
